PubChem BioAssay (NCI)
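In this assay, cells in 96-well plates receive the compound at five concentrations for 48 hours. Endpoints are linearly interpolated between the surrounding concentrations. TGI: total growth inhibition.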

What was measured:
Assay in all cases: growth of human tumour cells (NCI), 48 h
[1] = system: EKVX NSCLC
[2] = system: OVCAR-3 ovarian
[3] = system: 786-0 renal
[4] = system: UACC-257 melanoma
[5] = system: HL-60(TB) leukemia
[6] = system: HCT-116 colon
[7] = system: SK-MEL-5 melanoma
[8] = system: SN12C renal
[9] = system: NCI-H23 lung
[10] = system: NCI-H522 lung
[11] = system: K-562 leukemia
[12] = system: COLO 205 colon
[13] = system: SNB-19 CNS
[14] = system: SK-OV-3 ovarian
[15] = system: OVCAR-4 ovarian
[16] = system: BT-549 breast
[17] = system: HS 578T breast
[18] = system: SNB-75 CNS
[19] = system: MDA-N
[20] = system: T-47D breast
[21] = system: PC-3 prostate
[22] = system: M14 melanoma
[23] = system: CAKI-1 renal
[24] = system: DU-145 prostate
[25] = system: ACHN renal
[26] = system: IGROV1 ovarian
[27] = system: KM12 colon
[28] = system: UO-31 renal
[29] = system: A549 NSCLC
[30] = system: SF-295 CNS
[31] = system: HOP-92 NSCLC
[32] = system: OVCAR-8 ovarian
[33] = system: LOX IMVI melanoma
[34] = system: MALME-3M melanoma
[35] = system: HOP-62 NSCLC
[36] = system: MDA-MB-435
[37] = system: RXF 393 renal
[38] = system: SR leukemia
[39] = system: RPMI-8226 leukemia
[40] = system: U251 CNS
[41] = system: OVCAR-5 ovarian
[42] = system: SK-MEL-2 melanoma
[43] = system: UACC-62 melanoma
[44] = system: MOLT-4 leukemia
[45] = system: SK-MEL-28 melanoma
[46] = system: SW-620 colon
[47] = system: HCT-15 colon
[48] = system: NCI-H226 lung
[49] = system: NCI/ADR-RES ovarian
[50] = system: TK-10 renal
[51] = system: CCRF-CEM leukemia
[52] = system: SF-268 CNS
[53] = system: HT29 colon
[54] = system: MDA-MB-231 breast
[55] = system: NCI-H460 lung
[56] = system: A498 renal
[57] = system: HCC-2998 colon
[58] = system: MCF7 breast
[59] = system: SF-539 CNS

With N=C(c1ccc(-c2cn3cc(C(=N)N4CCCC4)ccc3n2)cc1)N1CCCC1 the TGI [1] was greater than 100 µM, the TGI [2] was greater than 100 µM and the TGI [3] was greater than 100 µM. It also gave a TGI [4] greater than 100 µM, a TGI [5] of 0.158 µM and a TGI [6] greater than 100 µM. It also gave a TGI [7] greater than 100 µM, a TGI [8] greater than 100 µM and a TGI [9] greater than 100 µM. The TGI [10] was greater than 100 µM, the TGI [11] was greater than 100 µM and the TGI [12] was greater than 100 µM. For the same compound, the TGI [13] was greater than 100 µM, the TGI [14] was greater than 100 µM and the TGI [15] was greater than 100 µM. For the same compound, the TGI [16] was greater than 100 µM, the TGI [17] was greater than 100 µM and the TGI [18] was greater than 100 µM. The TGI [19] was greater than 100 µM, the TGI [20] was greater than 100 µM and the TGI [21] was greater than 100 µM. It also gave a TGI [22] greater than 100 µM, a TGI [23] greater than 100 µM and a TGI [24] greater than 100 µM. It also gave a TGI [25] greater than 100 µM, a TGI [26] greater than 100 µM and a TGI [27] greater than 100 µM. The TGI [28] was greater than 100 µM, the TGI [29] was greater than 100 µM and the TGI [30] was greater than 100 µM. It also gave a TGI [31] greater than 100 µM, a TGI [32] greater than 100 µM and a TGI [33] greater than 100 µM. It also gave a TGI [34] greater than 100 µM, a TGI [35] greater than 100 µM and a TGI [36] greater than 100 µM. It also gave a TGI [37] greater than 100 µM, a TGI [38] greater than 100 µM and a TGI [39] greater than 100 µM. For the same compound, the TGI [40] was greater than 100 µM, the TGI [41] was greater than 100 µM and the TGI [42] was greater than 100 µM. For the same compound, the TGI [43] was greater than 100 µM, the TGI [44] was greater than 100 µM and the TGI [45] was greater than 100 µM. For the same compound, the TGI [46] was greater than 100 µM, the TGI [47] was greater than 100 µM and the TGI [48] was greater than 100 µM. The TGI [49] was greater than 100 µM, the TGI [50] was greater than 100 µM and the TGI [51] was 83.1 µM. For the same compound, the TGI [52] was greater than 100 µM, the TGI [53] was greater than 100 µM and the TGI [54] was greater than 100 µM.
CN(C)c1ccc(/C=C2\N=C(N/N=C/c3ccc(N(C)C)cc3)NC2=O)cc1 showed a TGI [1] greater than 100 µM, a TGI [2] greater than 100 µM and a TGI [3] greater than 100 µM. The TGI [4] was greater than 100 µM, the TGI [5] was greater than 100 µM and the TGI [6] was greater than 100 µM. For the same compound, the TGI [7] was greater than 100 µM, the TGI [8] was greater than 100 µM and the TGI [9] was greater than 100 µM. For the same compound, the TGI [10] was greater than 100 µM, the TGI [55] was greater than 100 µM and the TGI [12] was greater than 100 µM. It also gave a TGI [13] greater than 100 µM, a TGI [14] greater than 100 µM and a TGI [15] greater than 100 µM. For the same compound, the TGI [16] was greater than 100 µM, the TGI [17] was greater than 100 µM and the TGI [18] was greater than 100 µM. The TGI [19] was greater than 100 µM, the TGI [20] was greater than 100 µM and the TGI [21] was greater than 100 µM. It also gave a TGI [22] greater than 100 µM, a TGI [23] greater than 100 µM and a TGI [56] greater than 100 µM. The TGI [24] was 96 µM, the TGI [57] was greater than 100 µM and the TGI [25] was greater than 100 µM. For the same compound, the TGI [26] was greater than 100 µM, the TGI [27] was greater than 100 µM and the TGI [28] was greater than 100 µM. The TGI [29] was greater than 100 µM, the TGI [30] was greater than 100 µM and the TGI [31] was 98.4 µM. For the same compound, the TGI [32] was 72.7 µM, the TGI [34] was greater than 100 µM and the TGI [35] was greater than 100 µM. For the same compound, the TGI [36] was greater than 100 µM, the TGI [37] was 53.8 µM and the TGI [39] was greater than 100 µM. It also gave a TGI [40] greater than 100 µM, a TGI [41] greater than 100 µM and a TGI [42] greater than 100 µM. For the same compound, the TGI [58] was greater than 100 µM, the TGI [43] was greater than 100 µM and the TGI [44] was greater than 100 µM. It also gave a TGI [45] greater than 100 µM, a TGI [46] greater than 100 µM and a TGI [47] greater than 100 µM. It also gave a TGI [48] greater than 100 µM, a TGI [49] greater than 100 µM and a TGI [50] greater than 100 µM. For the same compound, the TGI [51] was greater than 100 µM, the TGI [52] was greater than 100 µM and the TGI [53] was greater than 100 µM. The TGI [54] was greater than 100 µM.
OC(c1ccc(F)cc1)(c1ccc(F)cc1)C1CC1 was tested, and the TGI [1] was 96.2 µM, the TGI [2] was greater than 100 µM and the TGI [3] was greater than 100 µM. For the same compound, the TGI [4] was 73 µM, the TGI [5] was 47.3 µM and the TGI [6] was greater than 100 µM. For the same compound, the TGI [7] was 30.2 µM, the TGI [8] was 53.6 µM and the TGI [9] was 35.9 µM. The TGI [10] was 52.9 µM, the TGI [11] was greater than 100 µM and the TGI [55] was greater than 100 µM. For the same compound, the TGI [12] was 29.7 µM, the TGI [13] was greater than 100 µM and the TGI [14] was greater than 100 µM. It also gave a TGI [15] of 79.2 µM, a TGI [16] of 37.9 µM and a TGI [17] of 82.6 µM. For the same compound, the TGI [18] was greater than 100 µM, the TGI [19] was 44.1 µM and the TGI [20] was greater than 100 µM. For the same compound, the TGI [21] was 53.7 µM, the TGI [22] was 69.2 µM and the TGI [23] was 98.7 µM. The TGI [56] was 77.8 µM, the TGI [24] was greater than 100 µM and the TGI [57] was 45.7 µM. The TGI [25] was greater than 100 µM, the TGI [26] was greater than 100 µM and the TGI [27] was greater than 100 µM. It also gave a TGI [28] of 59.5 µM, a TGI [29] of 94.2 µM and a TGI [30] greater than 100 µM. For the same compound, the TGI [31] was 97 µM, the TGI [32] was greater than 100 µM and the TGI [33] was 48.2 µM. For the same compound, the TGI [34] was 65.2 µM, the TGI [35] was greater than 100 µM and the TGI [36] was 74.2 µM. The TGI [37] was 67.7 µM, the TGI [39] was 59.2 µM and the TGI [40] was 59.6 µM. The TGI [41] was greater than 100 µM, the TGI [42] was 32.5 µM and the TGI [58] was greater than 100 µM. For the same compound, the TGI [43] was greater than 100 µM, the TGI [59] was greater than 100 µM and the TGI [44] was 49.2 µM. It also gave a TGI [45] greater than 100 µM, a TGI [46] greater than 100 µM and a TGI [47] of 68.2 µM. The TGI [48] was 88.1 µM, the TGI [49] was 58 µM and the TGI [50] was greater than 100 µM. The TGI [51] was 95.8 µM, the TGI [52] was greater than 100 µM and the TGI [53] was 65.9 µM. The TGI [54] was greater than 100 µM.
